Test results reported in the NIST ThermoML archive (doi:10.1016/j.jct.2009.12.002).
± gives the expanded uncertainty stated by the source.

Assay: molar heat capacity at constant pressure
Settings: Liquid

CC(C)CCCCCCCOC(=O)c1ccccc1C(=O)OCCCCCCCC(C)C
molar heat capacity at constant pressure [J/K/mol]
Settings	Flow calorimetry	Numerical integration with Cp at 1 atm and U at elevated pressures
293.15 K, 100 kPa	754.86 ± 15	755.75 ± 15
293.15 K, 10000 kPa	–	754.86 ± 15
293.15 K, 20000 kPa	–	753.52 ± 15
293.15 K, 30000 kPa	–	753.07 ± 15
293.15 K, 40000 kPa	–	752.18 ± 15
293.15 K, 50000 kPa	–	751.73 ± 15
293.15 K, 60000 kPa	–	751.29 ± 15
293.15 K, 70000 kPa	–	750.84 ± 15
293.15 K, 80000 kPa	–	750.84 ± 15
293.15 K, 90000 kPa	–	750.39 ± 15
293.15 K, 100000 kPa	–	750.39 ± 15
293.15 K, 110000 kPa	–	749.95 ± 15
293.15 K, 120000 kPa	–	749.95 ± 15
293.15 K, 130000 kPa	–	749.95 ± 15
293.15 K, 140000 kPa	–	749.95 ± 15
303.15 K, 100 kPa	–	771.39 ± 16
303.15 K, 10000 kPa	–	770.05 ± 15
303.15 K, 20000 kPa	–	768.71 ± 15
303.15 K, 30000 kPa	–	767.81 ± 15
303.15 K, 40000 kPa	–	767.37 ± 15
303.15 K, 50000 kPa	–	766.92 ± 15
303.15 K, 60000 kPa	–	766.47 ± 15
303.15 K, 70000 kPa	–	766.03 ± 15
303.15 K, 80000 kPa	–	765.58 ± 15
303.15 K, 90000 kPa	–	765.58 ± 15
303.15 K, 100000 kPa	–	765.13 ± 15
303.15 K, 110000 kPa	–	765.13 ± 15
303.15 K, 120000 kPa	–	765.13 ± 15
303.15 K, 130000 kPa	–	765.13 ± 15
303.15 K, 140000 kPa	–	765.13 ± 15
313.15 K, 100 kPa	788.81 ± 16	786.57 ± 16
313.15 K, 10000 kPa	–	785.23 ± 16
313.15 K, 20000 kPa	–	784.34 ± 16
313.15 K, 30000 kPa	–	783.45 ± 16
313.15 K, 40000 kPa	–	782.55 ± 16
313.15 K, 50000 kPa	–	782.11 ± 16
313.15 K, 60000 kPa	–	781.66 ± 16
313.15 K, 70000 kPa	–	781.21 ± 16
313.15 K, 80000 kPa	–	781.21 ± 16
313.15 K, 90000 kPa	–	780.77 ± 16
313.15 K, 100000 kPa	–	780.77 ± 16
313.15 K, 110000 kPa	–	780.77 ± 16
313.15 K, 120000 kPa	–	780.77 ± 16
313.15 K, 130000 kPa	–	780.32 ± 16
313.15 K, 140000 kPa	–	780.32 ± 16
323.15 K, 100 kPa	–	802.65 ± 16
323.15 K, 10000 kPa	–	801.31 ± 16
323.15 K, 20000 kPa	–	799.97 ± 16
323.15 K, 30000 kPa	–	799.08 ± 16
323.15 K, 40000 kPa	–	798.63 ± 16
323.15 K, 50000 kPa	–	797.74 ± 16
323.15 K, 60000 kPa	–	797.29 ± 16
323.15 K, 70000 kPa	–	797.29 ± 16
323.15 K, 80000 kPa	–	796.85 ± 16
323.15 K, 90000 kPa	–	796.4 ± 16
323.15 K, 100000 kPa	–	796.4 ± 16
323.15 K, 110000 kPa	–	796.4 ± 16
323.15 K, 120000 kPa	–	796.4 ± 16
323.15 K, 130000 kPa	–	796.4 ± 16
323.15 K, 140000 kPa	–	796.4 ± 16
333.15 K, 100 kPa	816.5 ± 17	818.73 ± 17
333.15 K, 10000 kPa	–	817.39 ± 17
333.15 K, 20000 kPa	–	816.05 ± 17
333.15 K, 30000 kPa	–	815.16 ± 17
333.15 K, 40000 kPa	–	814.27 ± 16
333.15 K, 50000 kPa	–	813.82 ± 16
333.15 K, 60000 kPa	–	813.37 ± 16
333.15 K, 70000 kPa	–	812.93 ± 16
333.15 K, 80000 kPa	–	812.93 ± 16
333.15 K, 90000 kPa	–	812.48 ± 16
333.15 K, 100000 kPa	–	812.48 ± 16
333.15 K, 110000 kPa	–	812.48 ± 16
333.15 K, 120000 kPa	–	812.48 ± 16
333.15 K, 130000 kPa	–	812.48 ± 16
333.15 K, 140000 kPa	–	812.48 ± 16
343.15 K, 100 kPa	–	835.26 ± 17
343.15 K, 10000 kPa	–	833.92 ± 17
343.15 K, 20000 kPa	–	832.58 ± 17
343.15 K, 30000 kPa	–	831.69 ± 17
343.15 K, 40000 kPa	–	830.79 ± 17
343.15 K, 50000 kPa	–	830.35 ± 17
343.15 K, 60000 kPa	–	829.9 ± 17
343.15 K, 70000 kPa	–	829.45 ± 17
343.15 K, 80000 kPa	–	829.01 ± 17
343.15 K, 90000 kPa	–	829.01 ± 17
343.15 K, 100000 kPa	–	829.01 ± 17
343.15 K, 110000 kPa	–	829.01 ± 17
343.15 K, 120000 kPa	–	829.01 ± 17
343.15 K, 130000 kPa	–	828.56 ± 17
343.15 K, 140000 kPa	–	829.01 ± 17
353.15 K, 100 kPa	852.23 ± 17	852.23 ± 17
353.15 K, 10000 kPa	–	850.45 ± 17
353.15 K, 20000 kPa	–	849.11 ± 17
353.15 K, 30000 kPa	–	848.21 ± 17
353.15 K, 40000 kPa	–	847.32 ± 17
353.15 K, 50000 kPa	–	846.87 ± 17
353.15 K, 60000 kPa	–	846.43 ± 17
353.15 K, 70000 kPa	–	845.98 ± 17
353.15 K, 80000 kPa	–	845.98 ± 17
353.15 K, 90000 kPa	–	845.53 ± 17
353.15 K, 100000 kPa	–	845.53 ± 17
353.15 K, 110000 kPa	–	845.53 ± 17
353.15 K, 120000 kPa	–	845.53 ± 17
353.15 K, 130000 kPa	–	845.53 ± 17
353.15 K, 140000 kPa	–	845.53 ± 17
363.15 K, 100 kPa	–	869.21 ± 17
363.15 K, 10000 kPa	–	867.42 ± 17
363.15 K, 20000 kPa	–	866.08 ± 17
363.15 K, 30000 kPa	–	865.19 ± 17
363.15 K, 40000 kPa	–	864.29 ± 17
363.15 K, 50000 kPa	–	863.85 ± 17
363.15 K, 60000 kPa	–	863.4 ± 17
363.15 K, 70000 kPa	–	862.95 ± 17
363.15 K, 80000 kPa	–	862.95 ± 17
363.15 K, 90000 kPa	–	862.95 ± 17
363.15 K, 100000 kPa	–	862.51 ± 17
363.15 K, 110000 kPa	–	862.51 ± 17
363.15 K, 120000 kPa	–	862.51 ± 17
363.15 K, 130000 kPa	–	862.51 ± 17
363.15 K, 140000 kPa	–	862.51 ± 17
373.15 K, 100 kPa	893.77 ± 18	886.62 ± 18
373.15 K, 10000 kPa	–	884.84 ± 18
373.15 K, 20000 kPa	–	883.5 ± 18
373.15 K, 30000 kPa	–	882.6 ± 18
373.15 K, 40000 kPa	–	881.71 ± 17
373.15 K, 50000 kPa	–	881.26 ± 17
373.15 K, 60000 kPa	–	880.82 ± 17
373.15 K, 70000 kPa	–	880.37 ± 17
373.15 K, 80000 kPa	–	880.37 ± 17
373.15 K, 90000 kPa	–	879.93 ± 17
373.15 K, 100000 kPa	–	879.93 ± 17
373.15 K, 110000 kPa	–	879.93 ± 17
373.15 K, 120000 kPa	–	879.93 ± 17
373.15 K, 130000 kPa	–	879.93 ± 17
373.15 K, 140000 kPa	–	879.93 ± 17
383.15 K, 100 kPa	–	904.49 ± 18
383.15 K, 10000 kPa	–	902.7 ± 18
383.15 K, 20000 kPa	–	901.36 ± 18
383.15 K, 30000 kPa	–	900.02 ± 18
383.15 K, 40000 kPa	–	899.58 ± 18
383.15 K, 50000 kPa	–	898.68 ± 18
383.15 K, 60000 kPa	–	898.24 ± 18
383.15 K, 70000 kPa	–	898.24 ± 18
383.15 K, 80000 kPa	–	897.79 ± 18
383.15 K, 90000 kPa	–	897.79 ± 18
383.15 K, 100000 kPa	–	897.79 ± 18
383.15 K, 110000 kPa	–	897.79 ± 18
383.15 K, 120000 kPa	–	897.79 ± 18
383.15 K, 130000 kPa	–	897.79 ± 18
383.15 K, 140000 kPa	–	897.79 ± 18
393.15 K, 100 kPa	914.32 ± 18	922.8 ± 18
393.15 K, 10000 kPa	–	920.57 ± 18
393.15 K, 20000 kPa	–	919.23 ± 18
393.15 K, 30000 kPa	–	918.34 ± 18
393.15 K, 40000 kPa	–	917.44 ± 18
393.15 K, 50000 kPa	–	917 ± 18
393.15 K, 60000 kPa	–	916.55 ± 18
393.15 K, 70000 kPa	–	916.1 ± 18
393.15 K, 80000 kPa	–	916.1 ± 18
393.15 K, 90000 kPa	–	915.66 ± 18
393.15 K, 100000 kPa	–	915.66 ± 18
393.15 K, 110000 kPa	–	915.66 ± 18
393.15 K, 120000 kPa	–	915.66 ± 18
393.15 K, 130000 kPa	–	915.66 ± 18
393.15 K, 140000 kPa	–	916.1 ± 18
403.15 K, 100 kPa	–	941.12 ± 19
403.15 K, 10000 kPa	–	938.88 ± 19
403.15 K, 20000 kPa	–	937.54 ± 19
403.15 K, 30000 kPa	–	936.65 ± 19
403.15 K, 40000 kPa	–	935.76 ± 19
403.15 K, 50000 kPa	–	934.86 ± 19
403.15 K, 60000 kPa	–	934.86 ± 19
403.15 K, 70000 kPa	–	934.42 ± 19
403.15 K, 80000 kPa	–	934.42 ± 19
403.15 K, 90000 kPa	–	933.97 ± 19
403.15 K, 100000 kPa	–	933.97 ± 19
403.15 K, 110000 kPa	–	933.97 ± 19
403.15 K, 120000 kPa	–	933.97 ± 19
403.15 K, 130000 kPa	–	934.42 ± 19
403.15 K, 140000 kPa	–	934.42 ± 19
413.15 K, 100 kPa	–	959.88 ± 19
413.15 K, 10000 kPa	–	957.64 ± 19
413.15 K, 20000 kPa	–	956.3 ± 19
413.15 K, 30000 kPa	–	954.96 ± 19
413.15 K, 40000 kPa	–	954.07 ± 19
413.15 K, 50000 kPa	–	953.62 ± 19
413.15 K, 60000 kPa	–	953.18 ± 19
413.15 K, 70000 kPa	–	953.18 ± 19
413.15 K, 80000 kPa	–	952.73 ± 19
413.15 K, 90000 kPa	–	952.73 ± 19
413.15 K, 100000 kPa	–	952.73 ± 19
413.15 K, 110000 kPa	–	952.73 ± 19
413.15 K, 120000 kPa	–	952.73 ± 19
413.15 K, 130000 kPa	–	953.18 ± 19
413.15 K, 140000 kPa	–	953.18 ± 19
423.15 K, 100 kPa	981.32 ± 20	–
